Target: T1, Human IDO (Homo sapiens, UniProt P14902)
T1 construct: High control is Hela cells with IFNγ treatment; endogenous in cells; host or cells: HeLa cells treated with 25 ng/ml IFNγ
Assay: HeLa cell IDO assay (IFNγ-treated cells, N-formylkynurenine by RapidFire/MS/MS)
Format: cell-based
Settings: 25 ng/ml IFNγ, 200 μM Trp, 48 hours, class symbol

T1 sequence (P14902 whole entry): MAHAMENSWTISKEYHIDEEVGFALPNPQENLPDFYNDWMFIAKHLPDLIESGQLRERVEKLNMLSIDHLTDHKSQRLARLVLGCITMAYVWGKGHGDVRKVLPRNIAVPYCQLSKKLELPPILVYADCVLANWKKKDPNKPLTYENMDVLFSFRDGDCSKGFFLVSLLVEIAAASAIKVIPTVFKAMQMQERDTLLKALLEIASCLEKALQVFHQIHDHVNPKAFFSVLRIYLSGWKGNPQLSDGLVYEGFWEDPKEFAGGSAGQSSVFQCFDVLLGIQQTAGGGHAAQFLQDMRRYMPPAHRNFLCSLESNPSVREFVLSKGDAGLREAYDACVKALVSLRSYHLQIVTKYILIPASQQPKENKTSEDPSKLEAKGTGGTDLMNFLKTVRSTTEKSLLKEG

SMILES	IC50
O=C(Nc1cccc(C(F)(F)F)c1)[C@H]1C[C@]12CC[C@H](c1ccnc3ccc(F)cc31)CC2 [Compound 1-17]	> 1000 nM
O=C(NN1CCCCC1)[C@H]1C[C@]12CC[C@H](c1ccnc3ccc(F)cc31)CC2 [Compound 1-18]	> 1000 nM
O=C([C@H]1C[C@]12CC[C@H](c1ccnc3ccc(F)cc31)CC2)N1CCC(C(F)(F)F)CC1 [Compound 1-20]	> 1000 nM
O=C(NCc1ccc(Cl)cc1)[C@H]1C[C@]12CC[C@H](c1ccnc3ccc(F)cc31)CC2 [Compound 1-21]	> 1000 nM
O=C(Nc1ccccc1Cl)[C@H]1C[C@]12CC[C@H](c1ccnc3ccc(F)cc31)CC2 [Compound 2-2]	> 1000 nM
N#Cc1ccc(NC(=O)[C@H]2C[C@]23CC[C@H](c2ccnc4ccc(F)cc42)CC3)nc1 [Compound 3-3]	100 to 1000 nM
O=C(Nc1ccc(Cl)cc1)C1CC12CCC(c1ccnc3ccc(F)cc13)CC2 (stereo not drawn) [Compound 5-4, N-(4-chlorophenyl)-6-(6-fluoroquinolin-4-yl)spiro[2.5]octane-1-carboxamide]	100 to 1000 nM
COc1ccc2nccc([C@H]3CC[C@@]4(CC3)C[C@@H]4C(=O)Nc3ccc(Cl)cc3)c2c1 [Compound 8-4D]	100 to 1000 nM
COc1ccc2ncnc([C@H]3CC[C@@]4(CC3)C[C@@H]4C(=O)Nc3ccc(Cl)cc3)c2c1 [Compound 8-4E]	100 to 1000 nM
O=C(Nc1ccc(Cl)cc1)C1(F)CC12CCC(c1ccnc3ccc(F)cc13)CC2 (stereo not drawn) [Compound 10-4, N-(4-chlorophenyl)-1-fluoro-6-(6-fluoroquinolin-4-yl)spiro[2.5]octane-1-carboxamide]	100 to 1000 nM
O=C(NC1CC12CCN(c1ccnc3ccc(F)cc13)CC2)c1ccc(Cl)cc1 (stereo not drawn) [Compound 13-3, 4-chloro-N-(6-(6-fluoroquinolin-4-yl)-6-azaspiro[2.5]octan-1-yl)benzamide]	100 to 1000 nM
O=C(NC1CCC12CCC(c1ccnc3ccc(F)cc13)CC2)c1ccc(Cl)cc1 (stereo not drawn) [Compound 14-7, 4-chloro-N-(7-(6-fluoroquinolin-4-yl)spiro[3.5]nonan-1-yl)benzamide]	> 1000 nM
O=C(Nc1ccc(Cl)cc1)C1CCC12CCC(c1ccnc3ccc(F)cc13)CC2 (stereo not drawn) [Compound 15-3, N-(4-chlorophenyl)-7-(6-fluoroquinolin-4-yl)spiro[3.5]nonane-1-carboxamide]	> 1000 nM
O=C(N[C@H]1CC2(CC[C@H](c3ccnc4ccc(F)cc43)CC2)C1)c1ccncc1 (stereo partly drawn) [Compound 17-9]	100 to 1000 nM
O=C(Nc1ccc(Cl)cc1)C1CC2(CCN(c3ccnc4ccc(F)cc34)CC2)C1 [Compound 19-3, N-(4-chlorophenyl)-7-(6-fluoroquinolin-4-yl)-7-azaspiro[3.5]nonane-2-carboxamide]	100 to 1000 nM
O=C(NC1CC2(CCN(c3ccnc4ccncc34)CC2)C1)c1ccc(Cl)cc1 [Compound 22-5, N-(7-(1,6-naphthyridin-4-yl)-7-azaspiro[3.5]nonan-2-yl)-4-chlorobenzamide]	> 1000 nM
O=C(NC1(C2CCN(c3ccnc4ccc(F)cc34)CC2)CC1)c1ccc(Cl)cc1 [Compound 27-3, 4-chloro-N-[1-[1-(6-fluoroquinolin-4-yl)piperidin-4-yl]cyclopropyl]benzamide]	100 to 1000 nM

Other lines, results leading:

IC50	SMILES
< 100 nM	Cc1ccc(NC(=O)[C@H]2C[C@]23CC[C@H](c2ccnc4ccc(F)cc42)CC3)cc1 [Compound 1-14]
100 to 1000 nM	O=C(Nc1cccc(Cl)c1)[C@H]1C[C@]12CC[C@H](c1ccnc3ccc(F)cc31)CC2 [Compound 1-15]
100 to 1000 nM	O=C(Nc1ccccc1F)[C@H]1C[C@]12CC[C@H](c1ccnc3ccc(F)cc31)CC2 [Compound 1-16]
< 100 nM	O=C(Nc1ccc(Cl)c(F)c1)[C@H]1C[C@]12CC[C@H](c1ccnc3ccc(F)cc31)CC2 [Compound 1-19]
100 to 1000 nM	O=C(Nc1ccc(-n2cccn2)cc1)[C@H]1C[C@]12CC[C@H](c1ccnc3ccc(F)cc31)CC2 [Compound 1-22]
< 100 nM	O=C(Nc1ccc(Cl)nc1)[C@H]1C[C@]12CC[C@H](c1ccnc3ccc(F)cc31)CC2 [Compound 1-23]
< 100 nM	N#Cc1ccc(NC(=O)C2CC23CCC(c2ccnc4ccc(F)cc24)CC3)cc1 (stereo not drawn) [Compound 2-1, N-(4-cyanophenyl)-6-(6-fluoroquinolin-4-yl)spiro[2.5]octane-1-carboxamide]
100 to 1000 nM	O=C(Nc1ccc(Cl)cn1)[C@H]1C[C@]12CC[C@H](c1ccnc3ccc(F)cc31)CC2 [Compound 2-3]
100 to 1000 nM	O=C(Nc1ccc(C(F)(F)F)cc1)[C@H]1C[C@]12CC[C@H](c1ccnc3ccc(F)cc31)CC2 [Compound 2-4]
< 100 nM	O=C(Nc1ccc(Cl)cc1F)[C@H]1C[C@]12CC[C@H](c1ccnc3ccc(F)cc31)CC2 [Compound 2-5]
< 100 nM	O=C(Nc1ccc(F)cn1)[C@H]1C[C@]12CC[C@H](c1ccnc3ccc(F)cc31)CC2 [Compound 2-6]
< 100 nM	O=C(Nc1ccc(Cl)cc1)[C@H]1C[C@]12CC[C@H](c1ccnc3ccc(Cl)cc31)CC2 [Compound 8-4A]
< 100 nM	N#Cc1ccc2nccc([C@H]3CC[C@@]4(CC3)C[C@@H]4C(=O)Nc3ccc(Cl)cc3)c2c1 [Compound 8-4B]
< 100 nM	COc1cc2nccc([C@H]3CC[C@@]4(CC3)C[C@@H]4C(=O)Nc3ccc(Cl)cc3)c2cc1OC [Compound 8-4C]
< 100 nM	COc1cc2nccc([C@H]3CC[C@@]4(CC3)C[C@@H]4C(=O)Nc3ccc(Cl)cc3)c2cn1 [Compound 8-4F]
< 100 nM	N#Cc1ccc(C(=O)N[C@H]2CC3(CC[C@H](c4ccnc5ccc(F)cc54)CC3)C2)cc1 (stereo partly drawn) [Compound 17-8]
< 100 nM	O=C(NC1CC2(CCN(c3ccnc4ccc(F)cc34)CC2)C1)c1ccc(Cl)cc1 [Compound 18-5, 4-chloro-N-(7-(6-fluoroquinolin-4-yl)-7-azaspiro[3.5]nonan-2-yl)benzamide]
< 100 nM	O=C(NC1(C2CCC(c3ccnc4ccc(F)cc34)CC2)CC1)c1ccc(Cl)cc1 (stereo not drawn) [Compound 23-5A, 4-chloro-N-(1-(4-(6-fluoroquinolin-4-yl)cyclohexyl)cyclopropyl)-benzamide]
< 100 nM	O=C(Nc1ccc(Cl)cc1)C1([C@H]2CC[C@@H](c3ccnc4ccc(F)cc43)CC2)CC1 [Compound 24-5A, N-(4-chlorophenyl)-1-(4-(6-fluoroquinolin-4-yl)cyclohexyl)cyclopropyl-1-carboxamide]
< 100 nM	O=C(Nc1ccc(Cl)cc1)C1([C@H]2CC[C@H](c3ccnc4ccc(F)cc43)CC2)CC1 [Compound 24-5B, N-(4-chlorophenyl)-1-(4-(6-fluoroquinolin-4-yl)cyclohexyl)cyclopropyl-1-carboxamide]
< 100 nM	O=C(Nc1ccc(Cl)cc1)C1(C2CCN(c3ccnc4ccc(F)cc34)CC2)CC1 [Compound 26-8, N-(4-chlorophenyl)-1-[1-(6-fluoroquinolin-4-yl)piperidin-4-yl]cyclopropane-1-carboxamide]
< 100 nM	O=C(Nc1ccc(Cl)cc1)C1(C2CCC(c3ccnc4ccncc34)CC2)CC1 (stereo not drawn) [Compound 28-5, 1-(4-(1,6-naphthyridin-4-yl)cyclohexyl)-N-(4-chlorophenyl)cyclopropane-1-carboxamide]

Reference: US11180497B2 (ANGEX PHARMACEUTICAL, INC., priority 2017, dated 2021)
